Experimental data from ChEMBL document CHEMBL1153874, “Synthesis and biological evaluation of cytotoxic properties of stilbene-based resveratrol analogs” (Eur J Med Chem, 2009).
≈ marks a conversion by molar mass, not a printed value.

Columns and labels:
[1] = test system: B16; assay: Cytotoxicity against mouse B16 cells after 72 hrs by MTT assay; format: functional, cell-based; conditions: B16, 72 h
[2] = test system: HCT-8; assay: Cytotoxicity against human HCT8 cells after 72 hrs by MTT assay; format: functional, cell-based; conditions: HCT-8, 72 h
[3] = Antimitotic activity in Lytechinus variegatus embryo assessed as inhibition of blastula formation at 417 uM relative to control; format: functional
[4] = test system: Lytechinus variegatus; assay: Antimitotic activity in Lytechinus variegatus embryo assessed as inhibition of first cleavage at 41.7 uM relative to control; format: functional
[5] = Toxicity in mouse erythrocytes assessed as hemolysis at 1.5 to 200 ug/mL after 30 min by spectrophotometry; format: cell-based; conditions: erythrocyte, 0.5 h
[6] = test system: Lytechinus variegatus; assay: Antimitotic activity in Lytechinus variegatus embryo assessed as inhibition of third cleavage at 417 uM relative to control; format: functional
[7] = test system: CCRF-CEM; assay: Cytotoxicity against human CEM cells after 72 hrs by MTT assay; format: cell-based
[8] = test system: HL-60; assay: Cytotoxicity against human HL60 cells after 72 hrs by MTT assay; format: functional, cell-based; conditions: HL-60, 72 h
[9] = test system: Lytechinus variegatus; assay: Antimitotic activity in Lytechinus variegatus embryo assessed as inhibition of third cleavage at 41.7 uM relative to control; format: functional
[10] = test system: K562; assay: Cytotoxicity against human K562 cells after 72 hrs by MTT assay; format: functional, cell-based; conditions: K562, 72 h
[11] = test system: MDA-MB-435; assay: cells; conditions: Homo sapiens, MDA-MB-435, 72 h
Description: Cytotoxicity against human MDA-MB-435 cells after 72 hrs by MTT assay

[12] = test system: PC-3; assay: cells; conditions: Homo sapiens, PC-3, 72 h
Description: Cytotoxicity against human PC3 cells after 72 hrs by MTT assay

[13] = Antimitotic activity in Lytechinus variegatus embryo assessed as inhibition of blastula formation at 41.7 uM relative to control; format: functional
[14] = test system: Lytechinus variegatus; assay: Antimitotic activity in Lytechinus variegatus embryo assessed as inhibition of first cleavage at 417 uM relative to control; format: functional
[15] = Antimitotic activity in Lytechinus variegatus embryo assessed as inhibition of blastula formation at 39.4 uM relative to control; format: functional
[16] = test system: Lytechinus variegatus; assay: Antimitotic activity in Lytechinus variegatus embryo assessed as inhibition of first cleavage at 394 uM relative to control; format: functional
[17] = test system: Lytechinus variegatus; assay: Antimitotic activity in Lytechinus variegatus embryo assessed as inhibition of third cleavage at 394 uM relative to control; format: functional
[18] = test system: Lytechinus variegatus; assay: Antimitotic activity in Lytechinus variegatus embryo assessed as inhibition of first cleavage at 39.4 uM relative to control; format: functional
[19] = test system: Lytechinus variegatus; assay: Antimitotic activity in Lytechinus variegatus embryo assessed as inhibition of third cleavage at 39.4 uM relative to control; format: functional
[20] = Antimitotic activity in Lytechinus variegatus embryo assessed as inhibition of blastula formation at 394 uM relative to control; format: functional
[21] = test system: Lytechinus variegatus; assay: Antimitotic activity in Lytechinus variegatus embryo assessed as inhibition of third cleavage at 43.8 uM relative to control; format: functional
[22] = test system: Lytechinus variegatus; assay: Antimitotic activity in Lytechinus variegatus embryo assessed as inhibition of first cleavage at 43.8 uM relative to control; format: functional
[23] = Antimitotic activity in Lytechinus variegatus embryo assessed as inhibition of blastula formation at 43.8 uM relative to control; format: functional
[24] = Antimitotic activity in Lytechinus variegatus embryo assessed as inhibition of blastula formation at 37 uM relative to control; format: functional
[25] = test system: Lytechinus variegatus; assay: Antimitotic activity in Lytechinus variegatus embryo assessed as inhibition of third cleavage at 37 uM relative to control; format: functional
[26] = Antimitotic activity in Lytechinus variegatus embryo assessed as inhibition of blastula formation at 370 uM relative to control; format: functional
[27] = test system: Lytechinus variegatus; assay: Antimitotic activity in Lytechinus variegatus embryo assessed as inhibition of first cleavage at 370 uM relative to control; format: functional
[28] = test system: Lytechinus variegatus; assay: Antimitotic activity in Lytechinus variegatus embryo assessed as inhibition of first cleavage at 37 uM relative to control; format: functional
[29] = test system: Lytechinus variegatus; assay: Antimitotic activity in Lytechinus variegatus embryo assessed as inhibition of third cleavage at 370 uM relative to control; format: functional
[30] = test system: Lytechinus variegatus; assay: Antimitotic activity in Lytechinus variegatus embryo assessed as inhibition of third cleavage at 352 uM relative to control; format: functional
[31] = test system: Lytechinus variegatus; assay: Antimitotic activity in Lytechinus variegatus embryo assessed as inhibition of first cleavage at 352 uM relative to control; format: functional
[32] = Antimitotic activity in Lytechinus variegatus embryo assessed as inhibition of blastula formation at 352 uM relative to control; format: functional
[33] = Antimitotic activity in Lytechinus variegatus embryo assessed as inhibition of blastula formation at 35.2 uM relative to control; format: functional
[34] = test system: Lytechinus variegatus; assay: Antimitotic activity in Lytechinus variegatus embryo assessed as inhibition of third cleavage at 35.2 uM relative to control; format: functional
[35] = test system: Lytechinus variegatus; assay: Antimitotic activity in Lytechinus variegatus embryo assessed as inhibition of first cleavage at 35.2 uM relative to control; format: functional
[36] = test system: Lytechinus variegatus; assay: Antimitotic activity in Lytechinus variegatus embryo assessed as inhibition of third cleavage at 320 uM relative to control; format: functional
[37] = test system: Lytechinus variegatus; assay: Antimitotic activity in Lytechinus variegatus embryo assessed as inhibition of first cleavage at 320 uM relative to control; format: functional
[38] = Antimitotic activity in Lytechinus variegatus embryo assessed as inhibition of blastula formation at 320 uM relative to control; format: functional
[39] = Antimitotic activity in Lytechinus variegatus embryo assessed as inhibition of blastula formation at 32 uM relative to control; format: functional
[40] = test system: Lytechinus variegatus; assay: Antimitotic activity in Lytechinus variegatus embryo assessed as inhibition of first cleavage at 32 uM relative to control; format: functional
[41] = test system: Lytechinus variegatus; assay: Antimitotic activity in Lytechinus variegatus embryo assessed as inhibition of third cleavage at 32 uM relative to control; format: functional
[42] = Antimitotic activity in Lytechinus variegatus embryo assessed as inhibition of blastula formation at 18.4 uM relative to control; format: functional
[43] = test system: Lytechinus variegatus; assay: Antimitotic activity in Lytechinus variegatus embryo assessed as inhibition of first cleavage at 18.4 uM relative to control; format: functional
[44] = test system: Lytechinus variegatus; assay: Antimitotic activity in Lytechinus variegatus embryo assessed as inhibition of third cleavage at 18.4 uM relative to control; format: functional
[45] = test system: Lytechinus variegatus; assay: Antimitotic activity in Lytechinus variegatus embryo assessed as inhibition of first cleavage at 184 uM relative to control; format: functional
[46] = test system: Lytechinus variegatus; assay: Antimitotic activity in Lytechinus variegatus embryo assessed as inhibition of third cleavage at 184 uM relative to control; format: functional
[47] = Antimitotic activity in Lytechinus variegatus embryo assessed as inhibition of blastula formation at 184 uM relative to control; format: functional

| SMILES | IC50 [11] [µg/mL] | IC50 [12] [µg/mL] | IC50 [1] [µg/mL] | IC50 [2] [µg/mL] | inhibition at 417 µM [3] [%] | inhibition [4] [%] | Activity [5] | inhibition [6] [%] | IC50 [7] [µg/mL] | IC50 [8] [µg/mL] | inhibition [9] [%] | IC50 [10] [µg/mL] | inhibition at 41.7 µM [13] [%] | inhibition [14] [%] | also measured |
| --- | --- | --- | --- | --- | --- | --- | --- | --- | --- | --- | --- | --- | --- | --- | --- |
| O=C(O)/C(=C/c1ccccc1O)c1ccccc1 | > 25 | > 25 | > 25 | > 25 | 95.4 | 12.3 | Non-toxic | 100 | > 25 | > 25 | 96.3 | > 25 | 97.3 | 44.5 |  |
| Oc1ccc(/C=C/c2cc(O)cc(O)c2)cc1 [RESVERATROL] | 13.8 (≈ 60.5 µM) | 3.51 (≈ 15.4 µM) | 14.3 (≈ 62.9 µM) | 5.82 (≈ 25.5 µM) |  |  | Non-toxic |  | 5.91 (≈ 25.9 µM) | 2.45 (≈ 10.7 µM) |  | 9.62 (≈ 42.1 µM) |  |  | inhibition [21]: 100%; inhibition [22]: 97.9%; inhibition at 43.8 µM [23]: 100% |
| COc1ccc(/C=C\c2ccccc2)cc1OC | 6.08 (≈ 25.3 µM) | > 25 | > 25 | > 25 | 100 | 0 | Non-toxic | 100 | > 25 | 6.42 (≈ 26.7 µM) | 100 | 6.38 (≈ 26.5 µM) | 100 | 100 |  |
| COc1cccc2c1C(=O)c1c(O)c3c(c(O)c1C2=O)C[C@@](O)(C(=O)CO)C[C@@H]3O[C@H]1C[C@H](N)[C@H](O)[C@H](C)O1 [DOXORUBICIN] |  | 0.45 (≈ 0.828 µM) |  |  |  |  |  |  | 0.02 (≈ 0.0368 µM) |  |  | 0.14 (≈ 0.258 µM) |  |  | inhibition at 18.4 µM [42]: 100%; inhibition [43]: 100%; inhibition [44]: 100%; inhibition [45]: 100%; inhibition [46]: 100%; inhibition at 184 µM [47]: 100% |
| COc1ccc(/C=C/c2ccccc2)cc1OC | > 25 | > 25 | > 25 | > 25 | 100 | 0 | Non-toxic | 100 | > 25 | > 25 | 6 | > 25 | 83 | 0 |  |

More lines, main results first:

| IC50 [11] [µg/mL] | IC50 [12] [µg/mL] | SMILES | IC50 [1] [µg/mL] | IC50 [2] [µg/mL] | inhibition at 417 µM [3] [%] | inhibition [4] [%] | Activity [5] | inhibition [6] [%] | IC50 [7] [µg/mL] | IC50 [8] [µg/mL] | inhibition [9] [%] | IC50 [10] [µg/mL] | inhibition at 41.7 µM [13] [%] | inhibition [14] [%] | also measured |
| --- | --- | --- | --- | --- | --- | --- | --- | --- | --- | --- | --- | --- | --- | --- | --- |
| > 25 | > 25 | COc1ccc(/C=C(/C(=O)O)c2ccccc2)cc1 | > 25 | > 25 |  |  | Non-toxic |  | > 25 | > 25 |  | > 25 |  |  | inhibition at 39.4 µM [15]: 0.3%; inhibition [16]: 0%; inhibition [17]: 9.3%; inhibition [18]: 0%; inhibition [19]: 3.6%; inhibition at 394 µM [20]: 68.7% |
| 17.8 (≈ 65.7 µM) | > 25 | COc1cc(/C=C(/C(=O)O)c2ccccc2)ccc1O | > 25 | > 25 |  |  | Non-toxic |  | > 25 | > 25 |  | > 25 |  |  | inhibition at 37 µM [24]: 5.3%; inhibition [25]: 7.6%; inhibition at 370 µM [26]: 99.7%; inhibition [27]: 0%; inhibition [28]: 0%; inhibition [29]: 7.3% |
| > 25 | > 25 | COc1ccc(/C=C(/C(=O)O)c2ccccc2)cc1OC | > 25 | > 25 |  |  | Non-toxic |  | > 25 | > 25 |  | > 25 |  |  | inhibition [30]: 0%; inhibition [31]: 3%; inhibition at 352 µM [32]: 0.7%; inhibition at 35.2 µM [33]: 0.7%; inhibition [34]: 0%; inhibition [35]: 4.3% |
| > 25 | > 25 | COc1cc(/C=C(/C(=O)O)c2ccccc2)ccc1OC(C)=O | > 25 | > 25 |  |  | Non-toxic |  | > 25 | > 25 |  | > 25 |  |  | inhibition [36]: 100%; inhibition [37]: 100%; inhibition at 320 µM [38]: 100%; inhibition at 32 µM [39]: 5%; inhibition [40]: 0%; inhibition [41]: 2.3% |
